According to patent US20070232647A1, “Use of Ppar Agonists to Treat Ruminants” (priority 2004, published 2007):

Tests used:
[1] = test system: Holstein cows; experiment: Average daily milk yield over sixty days after calving; type: in vivo; conditions: approximately 0.5 mg/kg SC on day of calving and day five post-calving, increased from 41.8 (placebo), p=0.052, FIG. 6
Protocol: One hundred twenty four pregnant, non-lactating Holstein cows were allocated to two treatment groups (placebo and COMPOUND (at approximately 0.5 mg/kg). In this Example COMPOUND is (3S)-3-[3-(1-Carboxy-1-methyl-ethoxy)-phenyl]-piperidine-1-carboxylic acid, 4-trifluoromethyl-benzyl ester. Animals were allowed to calve, treated by subcutaneous injection on the day of calving and on day five post-calving. Disease events and daily milk production were recorded for the following sixty days. The average daily milk yield in the treated cows was increased from 41.8 to 43.2 kg/day (p=0.052). Results are shown in FIG. 6.

[2] = test system: mid-lactation cows; experiment: Serum glucose levels, Example 1: PK/PD of two PPAR alpha agonists given IV and SC; type: in vivo; conditions: 0.5 mg/kg IV or SC, regardless of route of administration; blood samples up to 72 hours; FIG. 1
Protocol: Both compounds were administered by IV and SC routes, as outlined in the table below.
All animals were bled one day prior, and 15 minutes prior, to compound administration. Blood samples were collected from animals treated via IV at 5 and 10 minutes post compound administration. Blood samples were collected from all animals at 0.5, 1, 2, 4, 6, 24, 30, 48, 54, and 72 hours post compound administration. Samples were analyzed for glucose concentrations using a Dade Behring Dimension RXL serum chemistry analyzer. […] Other commercially available, standard apparatus for testing glucose levels can also be used.

| SMILES | average daily milk yield [1] | glucose concentration relative to baseline values [2] |
| --- | --- | --- |
| CC(C)(Oc1cccc([C@@H]2CCCN(C(=O)OCc3ccc(C(F)(F)F)cc3)C2)c1)C(=O)O [Compound A, (3S)-3-[3-(1-Carboxy-1-methyl-ethoxy)-phenyl]-piperidine-1-carboxylic acid 4-trifluoromethyl-benzyl ester] | 43.2 kg/day |  |
| Cc1ccc(-c2ccc(NS(=O)(=O)c3ccc(C)c(C(=O)O)c3)cc2)cc1 [Compound X, 2-Methyl-5-(4′-methyl-biphenyl-4-ylsulfamoyl)-benzoic acid] |  | increase in glucose |
